In patent US7994209B2, “3-phenoxymethylpyrrolidine compounds” (Theravance, Inc., priority 2009, dated 2011):

The compounds below were run against hNET (Homo sapiens, UniProt P23975) (assay: fluorescence-based norepinephrine reuptake inhibition assay (Tsuruda et al. 2010; data indicated by an asterisk)). Conditions: norepinephrine reuptake inhibition, fluorescence-based assay (values with asterisk); read-out: NET pIC50 (converted).
Type: cell-based
Design: expressed in transfected cells; host or cells: HEK-293

hNET, sequence (P23975 whole entry): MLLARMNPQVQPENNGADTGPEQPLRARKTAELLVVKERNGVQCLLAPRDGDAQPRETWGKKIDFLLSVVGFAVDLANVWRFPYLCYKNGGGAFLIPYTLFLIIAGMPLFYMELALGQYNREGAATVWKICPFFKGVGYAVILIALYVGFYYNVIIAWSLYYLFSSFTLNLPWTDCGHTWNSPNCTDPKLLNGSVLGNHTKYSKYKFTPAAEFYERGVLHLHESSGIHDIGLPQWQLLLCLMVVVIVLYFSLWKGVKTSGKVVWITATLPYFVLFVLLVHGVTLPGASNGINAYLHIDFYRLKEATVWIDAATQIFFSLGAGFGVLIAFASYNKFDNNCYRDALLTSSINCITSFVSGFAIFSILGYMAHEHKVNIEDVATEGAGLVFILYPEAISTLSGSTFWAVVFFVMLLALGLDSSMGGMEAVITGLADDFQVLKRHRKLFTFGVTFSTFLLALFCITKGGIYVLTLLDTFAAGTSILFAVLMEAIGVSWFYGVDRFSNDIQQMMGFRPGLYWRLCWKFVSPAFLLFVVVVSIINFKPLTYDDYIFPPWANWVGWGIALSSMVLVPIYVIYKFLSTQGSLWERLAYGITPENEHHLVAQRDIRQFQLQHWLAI

| IC50 [nM] | Structure (SMILES) |
| --- | --- |
| ≤ 10 | CCC[C@H](Oc1ccc(Cl)c(F)c1Cl)[C@H]1CCNC1 [Example 4-39, (S)-3-[(S)-1-(2,4-Dichloro-3-fluorophenoxy)butyl]pyrrolidine] |
| ≤ 10 | CCC[C@H](Oc1c(F)cc(Cl)cc1Cl)[C@H]1CCNC1 [Example 4-40, (S)-3-[(S)-1-(2,4-Dichloro-6-fluorophenoxy)butyl]pyrrolidine] |
| ≤ 10 | CCC[C@H](Oc1c(C)cc(Cl)cc1Cl)[C@H]1CCNC1 [Example 4-41, (S)-3-[(S)-1-(2,4-Dichloro-6-methylphenoxy)butyl]pyrrolidine] |
| ≤ 10 | CCC[C@@H](Oc1c(F)ccc(OC)c1Cl)[C@H]1CCNC1 [Example 4-42, (S)-3-[(R)-1-(2-Chloro-6-fluoro-3-methoxyphenoxy)butyl]pyrrolidine] |
| ≤ 10 | CCC[C@@H](Oc1cccc(F)c1F)[C@H]1CCNC1 [Example 4-44, (S)-3-[(R)-1-(2,3-Difluorophenoxy)butyl]pyrrolidine] |
| ≤ 10 | CCC[C@H](Oc1cccc(F)c1F)[C@H]1CCNC1 [Example 4-45, (S)-3-[(S)-1-(2,3-Difluorophenoxy)butyl]pyrrolidine] |
| ≤ 10 | CCC[C@@H](Oc1cccc(Cl)c1F)[C@H]1CCNC1 [Example 4-46, (S)-3-[(R)-1-(3-Chloro-2-fluorophenoxy)butyl]pyrrolidine] |
| ≤ 10 | CCC[C@@H](Oc1cccc(Cl)c1F)[C@@H]1CCNC1 [Example 4-47, (R)-3-[(R)-1-(3-Chloro-2-fluorophenoxy)butyl]pyrrolidine] |
| ≤ 10 | CCC[C@H](Oc1cccc(Cl)c1F)[C@H]1CCNC1 [Example 4-48, (S)-3-[(S)-1-(3-Chloro-2-fluorophenoxy)butyl]pyrrolidine] |
| ≤ 100 | CCC[C@@H](Oc1ccc(F)c(F)c1F)[C@H]1CCNC1 [Example 4-49, (S)-3-[(R)-1-(2,3,4-Trifluorophenoxy)butyl]pyrrolidine] |
| ≤ 10 | CCC[C@@H](Oc1ccc(Cl)c(Cl)c1F)[C@H]1CCNC1 [Example 4-51, (S)-3-[(R)-1-(3,4-Dichloro-2-fluorophenoxy)butyl]pyrrolidine] |
| ≤ 10 | CCC[C@H](Oc1ccc(Cl)c(Cl)c1F)[C@H]1CCNC1 [Example 4-52, (S)-3-[(S)-1-(3,4-Dichloro-2-fluorophenoxy)butyl]pyrrolidine] |
| ≤ 10 | CCC[C@H](Oc1c(F)cc(Cl)cc1F)[C@H]1CCNC1 [Example 4-53, (S)-3-[(S)-1-(4-Chloro-2,6-difluorophenoxy)butyl]pyrrolidine] |
| ≤ 100 | CCC[C@@H](Oc1ccc(Cl)cc1C)[C@@H]1CCNC1 [Example 4-61, (R)-3-[(R)-1-(4-Chloro-2-methylphenoxy)butyl]pyrrolidine] |
| ≤ 10 | CCC[C@H](Oc1cccc(C)c1C)[C@H]1CCNC1 [Example 4-62, (S)-3-[(S)-1-(2,3-Dimethylphenoxy)butyl]pyrrolidine] |
| ≤ 10 | CCC[C@H](Oc1ccc(Cl)cc1OC)[C@H]1CCNC1 [Example 4-72, (S)-3-[(S)-1-(4-Chloro-2-methoxyphenoxy)butyl]pyrrolidine] |
| ≤ 10 | CC(C)[C@H](Oc1cccc(Cl)c1F)[C@H]1CCNC1 [Example 6-3, (S)-3-[(S)-1-(3-Chloro-2-fluorophenoxy)-2-methylpropyl]pyrrolidine] |
| ≤ 10 | CC(C)[C@@H](Oc1cccc(Cl)c1F)[C@H]1CCNC1 [Example 6-4, (S)-3-[(R)-1-(3-Chloro-2-fluorophenoxy)-2-methylpropyl]pyrrolidine] |
| ≤ 10 | CC(C)[C@H](Oc1c(F)cc(Cl)cc1F)[C@H]1CCNC1 [Example 6-5, (S)-3-[(S)-1-(4-Chloro-2,6-difluorophenoxy)-2-methylpropyl]pyrrolidine] |
| ≤ 100 | CC(C)[C@@H](Oc1c(F)cc(Cl)cc1F)[C@@H]1CCNC1 [Example 6-6, (R)-3-[(R)-1-(4-Chloro-2,6-difluorophenoxy)-2-methylpropyl]pyrrolidine] |
| ≤ 100 | CC(C)[C@@H](Oc1ccc(Cl)c(Cl)c1F)[C@H]1CCNC1 [Example 6-8, (S)-3-[(R)-1-(3,4-Dichloro-2-fluorophenoxy)-2-methylpropyl]pyrrolidine] |
| ≤ 100 | CC(C)[C@@H](Oc1ccc(Cl)c(Cl)c1F)[C@@H]1CCNC1 [Example 6-9, (R)-3-[(R)-1-(3,4-Dichloro-2-fluorophenoxy)-2-methylpropyl]pyrrolidine] |
| ≤ 100 | CC(C)[C@H](Oc1cccc(Cl)c1Cl)[C@@H]1CCNC1 [Example 6-16, (R)-3-[(S)-1-(2,3-Dichlorophenoxy)-2-methylpropyl]pyrrolidine] |

What follows are compounds tested against hSERT (Homo sapiens, UniProt P31645) (assay: fluorescence-based serotonin reuptake inhibition assay (Tsuruda et al. 2010; data indicated by an asterisk)). Conditions: fluorescence-based assay (values with asterisk), read-out: SERT pIC50 (converted).
Type: cell-based
Design: expressed in transfected cells; host or cells: HEK-293

hSERT, sequence (P31645 whole entry): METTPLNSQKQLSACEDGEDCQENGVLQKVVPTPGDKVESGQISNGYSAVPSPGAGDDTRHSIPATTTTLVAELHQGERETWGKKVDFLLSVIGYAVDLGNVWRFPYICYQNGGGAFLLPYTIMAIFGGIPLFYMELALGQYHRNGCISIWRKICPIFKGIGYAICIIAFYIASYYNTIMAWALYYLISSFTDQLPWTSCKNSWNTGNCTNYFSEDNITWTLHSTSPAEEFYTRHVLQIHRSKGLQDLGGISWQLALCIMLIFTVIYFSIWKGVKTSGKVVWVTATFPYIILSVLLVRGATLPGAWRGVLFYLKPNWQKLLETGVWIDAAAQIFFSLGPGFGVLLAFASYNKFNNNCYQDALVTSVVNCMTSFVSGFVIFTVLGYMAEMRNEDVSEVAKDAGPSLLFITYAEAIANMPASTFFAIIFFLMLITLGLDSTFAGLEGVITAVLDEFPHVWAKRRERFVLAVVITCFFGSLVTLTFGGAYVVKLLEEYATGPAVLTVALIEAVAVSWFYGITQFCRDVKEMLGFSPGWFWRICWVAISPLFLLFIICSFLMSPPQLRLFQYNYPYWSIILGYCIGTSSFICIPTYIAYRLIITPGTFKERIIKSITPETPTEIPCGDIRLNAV

| IC50 [nM] | Structure (SMILES) |
| --- | --- |
| ≤ 10 | CCC[C@H](Oc1ccc(Cl)c(F)c1Cl)[C@H]1CCNC1 [Example 4-39, (S)-3-[(S)-1-(2,4-Dichloro-3-fluorophenoxy)butyl]pyrrolidine] |
| ≤ 10 | CCC[C@H](Oc1c(F)cc(Cl)cc1Cl)[C@H]1CCNC1 [Example 4-40, (S)-3-[(S)-1-(2,4-Dichloro-6-fluorophenoxy)butyl]pyrrolidine] |
| ≤ 10 | CCC[C@H](Oc1c(C)cc(Cl)cc1Cl)[C@H]1CCNC1 [Example 4-41, (S)-3-[(S)-1-(2,4-Dichloro-6-methylphenoxy)butyl]pyrrolidine] |
| ≤ 10 | CCC[C@@H](Oc1c(F)ccc(OC)c1Cl)[C@H]1CCNC1 [Example 4-42, (S)-3-[(R)-1-(2-Chloro-6-fluoro-3-methoxyphenoxy)butyl]pyrrolidine] |
| ≤ 100 | CCC[C@@H](Oc1cccc(F)c1F)[C@H]1CCNC1 [Example 4-44, (S)-3-[(R)-1-(2,3-Difluorophenoxy)butyl]pyrrolidine] |
| ≤ 100 | CCC[C@H](Oc1cccc(F)c1F)[C@H]1CCNC1 [Example 4-45, (S)-3-[(S)-1-(2,3-Difluorophenoxy)butyl]pyrrolidine] |
| ≤ 100 | CCC[C@@H](Oc1cccc(Cl)c1F)[C@H]1CCNC1 [Example 4-46, (S)-3-[(R)-1-(3-Chloro-2-fluorophenoxy)butyl]pyrrolidine] |
| ≤ 100 | CCC[C@@H](Oc1cccc(Cl)c1F)[C@@H]1CCNC1 [Example 4-47, (R)-3-[(R)-1-(3-Chloro-2-fluorophenoxy)butyl]pyrrolidine] |
| ≤ 100 | CCC[C@H](Oc1cccc(Cl)c1F)[C@H]1CCNC1 [Example 4-48, (S)-3-[(S)-1-(3-Chloro-2-fluorophenoxy)butyl]pyrrolidine] |
| ≤ 10 | CCC[C@@H](Oc1ccc(F)c(F)c1F)[C@H]1CCNC1 [Example 4-49, (S)-3-[(R)-1-(2,3,4-Trifluorophenoxy)butyl]pyrrolidine] |
| ≤ 10 | CCC[C@@H](Oc1ccc(Cl)c(Cl)c1F)[C@H]1CCNC1 [Example 4-51, (S)-3-[(R)-1-(3,4-Dichloro-2-fluorophenoxy)butyl]pyrrolidine] |
| ≤ 10 | CCC[C@H](Oc1ccc(Cl)c(Cl)c1F)[C@H]1CCNC1 [Example 4-52, (S)-3-[(S)-1-(3,4-Dichloro-2-fluorophenoxy)butyl]pyrrolidine] |
| ≤ 10 | CCC[C@H](Oc1c(F)cc(Cl)cc1F)[C@H]1CCNC1 [Example 4-53, (S)-3-[(S)-1-(4-Chloro-2,6-difluorophenoxy)butyl]pyrrolidine] |
| ≤ 100 | CCC[C@@H](Oc1ccc(Cl)cc1C)[C@@H]1CCNC1 [Example 4-61, (R)-3-[(R)-1-(4-Chloro-2-methylphenoxy)butyl]pyrrolidine] |
| ≤ 10 | CCC[C@H](Oc1cccc(C)c1C)[C@H]1CCNC1 [Example 4-62, (S)-3-[(S)-1-(2,3-Dimethylphenoxy)butyl]pyrrolidine] |
| ≤ 10 | CCC[C@H](Oc1ccc(Cl)cc1OC)[C@H]1CCNC1 [Example 4-72, (S)-3-[(S)-1-(4-Chloro-2-methoxyphenoxy)butyl]pyrrolidine] |
| ≤ 100 | CC(C)[C@H](Oc1cccc(Cl)c1F)[C@H]1CCNC1 [Example 6-3, (S)-3-[(S)-1-(3-Chloro-2-fluorophenoxy)-2-methylpropyl]pyrrolidine] |
| ≤ 10 | CC(C)[C@@H](Oc1cccc(Cl)c1F)[C@H]1CCNC1 [Example 6-4, (S)-3-[(R)-1-(3-Chloro-2-fluorophenoxy)-2-methylpropyl]pyrrolidine] |
| ≤ 10 | CC(C)[C@H](Oc1c(F)cc(Cl)cc1F)[C@H]1CCNC1 [Example 6-5, (S)-3-[(S)-1-(4-Chloro-2,6-difluorophenoxy)-2-methylpropyl]pyrrolidine] |
| ≤ 100 | CC(C)[C@@H](Oc1c(F)cc(Cl)cc1F)[C@@H]1CCNC1 [Example 6-6, (R)-3-[(R)-1-(4-Chloro-2,6-difluorophenoxy)-2-methylpropyl]pyrrolidine] |
| ≤ 10 | CC(C)[C@@H](Oc1ccc(Cl)c(Cl)c1F)[C@H]1CCNC1 [Example 6-8, (S)-3-[(R)-1-(3,4-Dichloro-2-fluorophenoxy)-2-methylpropyl]pyrrolidine] |
| ≤ 10 | CC(C)[C@@H](Oc1ccc(Cl)c(Cl)c1F)[C@@H]1CCNC1 [Example 6-9, (R)-3-[(R)-1-(3,4-Dichloro-2-fluorophenoxy)-2-methylpropyl]pyrrolidine] |
| ≤ 100 | CC(C)[C@H](Oc1cccc(Cl)c1Cl)[C@@H]1CCNC1 [Example 6-16, (R)-3-[(S)-1-(2,3-Dichlorophenoxy)-2-methylpropyl]pyrrolidine] |
